In patent US20090124539A1, “Methods of treating infection” (priority 2007, published 2009):
≈ marks a conversion by molar mass, not a printed value. Read-outs that look alike come from different tables or passages of the source.

Experiments:
Streptococcus pneumoniae = experiment: MIC, broth microdilution (CLSI); format: cell-based; conditions: Streptococcus pneumoniae, read-out: MIC
Description: (§1) The solvent for all of the compounds was deionized water (DIW), and all of the compounds dissolved in the solvent. The stock solutions were allowed to stand in DIW for one hour at room temperature prior to testing to allow time for auto-sterilization.
(§2) The test organisms were originally received from clinical sources, or from the American Type Culture Collection. When received, the organisms were sub-cultured onto an appropriate agar medium. Following incubation, colonies were harvested from these plates and cell suspensions prepared and frozen at −80° C. On the day prior to assay, a frozen vial of each culture was thawed and the contents were streaked for isolation onto either Tryptic Soy Agar (Becton Dickinson, Sparks, Md.) or Tryptic Soy Agar (Enhanced Hemolysis; Becton Dickinson) supplemented with 5% sheep blood for streptococci. The agar plates were incubated overnight at 35° C. Staphylococcus aureus ATCC 29213 and Enterococcus faecalis ATCC 29212 were included as quality control isolates in the assay.
(§3) The test medium for the broth microdilution testing was Mueller Hinton II broth (MHB II; BBL# 212322, Lot # 6024003, Becton Dickinson). The broth was prepared at 1.05× normal weight/volume to offset the 5% volume of the drug solution in the final test plates.
For streptococci, lysed horse blood (Lot # H88621; Cleveland Scientific, Bath, Ohio) was added to the MHB II at a final concentration of 2%. […]
(§4) MIC values were determined using a broth microdilution method as recommended by the Clinical and Laboratory Standards Institute (Clinical and Laboratory Standards Institute^a. Methods for Dilution Antimicrobial Susceptibility Tests for Bacteria That Grow Aerobically; Approved Standard-Seventh Edition. Clinical and Laboratory Standards Institute document M7-A7 [ISBN 1-56238-587-9]. Clinical and Laboratory Standards Institute, 940 West Valley Road, Suite 1400, Wayne, Pa. 19087-1898 USA, 2006). Automated liquid handlers (Multidrop 384, Labsystems, Helsinki, Finland; Biomek 2000 and Multimek 96, Beckman Coulter, Fullerton Calif.) were used to conduct serial dilutions and make liquid transfers.
(§5) Wells of two standard 96-well microdilution plates (Falcon 3918; Becton Dickinson) were filled with 150 μL of […] using the Multidrop 384. These plates were used to prepare the drug “mother plates” that provided the serial drug dilutions for replicate “daughter plates”. The Biomek 2000 was used to transfer 150 μl of each stock solution from the wells of column 1 of a deep well plate to the corresponding wells in column 1 of the mother plate and to make eleven 2-fold serial dilutions in the mother plates. The wells of column 12 contained no drug and were the organism growth control wells. Each mother plate has the capacity to create a total of 12 daughter plates.
(§6) The daughter plates were loaded with 180 μL of one of the media described above using the Multidrop 384. The wells of the daughter plates ultimately contained 180 μL of MHB II, 10 μL of drug solution, and 10 μL of bacterial inoculum prepared in broth appropriate to the test organism (1.05×). The daughter plates were prepared on the Multimek 96 instrument, which transferred 10 μL of drug solution from each well of the mother plate to each corresponding well of each daughter plate in a single step.
Standardized inoculum of each organism was prepared following Clinical and Laboratory Standards Institute (Clinical and Laboratory Standards Institute^b. Performance Standards for Antimicrobial Susceptibility Testing; Sixteenth Informational Supplement. CLSI document M100-S16 [ISBN 1-56238-588-7]. Clinical and Laboratory Standards Institute, 940 West Valley Road, Suite 1400, Wayne, Pa. 19087-1898 USA, 2006) methods. The inoculum for each organism was dispensed into sterile reservoirs divided by length (Beckman Coulter), and the Biomek 2000 was used to inoculate the plates. […]

[1] = system: Staphylococcus epidermidis; experiment: MIC, broth microdilution (CLSI); format: cell-based; conditions: read-out: MIC
Description: as §1, §2, §3
(§7) CLSI guidelines recommend that Mueller-Hinton II broth be adjusted to contain 50 mg/L of Ca^++ ions for proper daptomycin MIC results. Since Mueller-Hinton II broth has already been adjusted by the manufacturer to contain approximately 25 mg/L of Ca^++ ions, an additional 25 mg/L of Ca^++ ions was adjusted with 10 mg/mL of CaCl2.2H2O (Lot# 084K0215; Sigma-Aldrich) added at a rate of 0.1 mL/L of broth, for each desired increment of 1 mg/L. This supplemented Mueller-Hinton II broth was used only in wells containing daptomycin.
as §4, §5
as §6, with “step. […]” for “step.”

Enterococcus faecalis [2] = experiment: MIC, broth microdilution (CLSI); format: cell-based; conditions: Enterococcus faecalis, read-out: MIC
Description: as §1, §2, §3, §7, §4, §5
as §6, with “step. […]” for “step.”

Enterococcus faecalis [3] = conditions: quality control range for Enterococcus faecalis ATCC 29212 (# 101); cited from earlier work
Staphylococcus aureus [4] = conditions: quality control range for Staphylococcus aureus ATCC 29213 (# 100); cited from earlier work
Streptococcus pyogenes = experiment: MIC, broth microdilution (CLSI); format: cell-based
Description: as §1, §2, §3
For streptococci, lysed horse blood (Lot # H88621; Cleveland Scientific, Bath, Ohio) was added to the MHB II at a final concentration of 2%.
as §7, §4, §5
as §6, with “step. […]” for “step.”

Staphylococcus aureus [5] = experiment: MIC, broth microdilution (CLSI); format: cell-based; conditions: Staphylococcus aureus, read-out: MIC
Description: (§8) The stock solutions were allowed to stand in DIW for one hour at room temperature prior to testing to allow time for auto-sterilization.
as §2, §3, §7, §4, §5, §6

Enterococcus faecium = experiment: MIC, broth microdilution (CLSI); format: cell-based; conditions: Enterococcus faecium, read-out: MIC
Description: as §8, §2, §3, §7, §4, §5, §6

[6] = Streptococcus pneumoniae Micromyx # 374, Wild type
[7] = Streptococcus pneumoniae Micromyx # 379, parC, gyrA, gyrB
[8] = Streptococcus pneumoniae Micromyx # 927, mef(A)
[9] = Streptococcus pneumoniae Micromyx # 928, erm(B)
[10] = Staphylococcus epidermidis Micromyx # 108, MRSE
[11] = Staphylococcus epidermidis Micromyx # 835, MSSE
[12] = ATCC29212, Enterococcus faecalis Micromyx # 101, VSE, CLSI QC strain (ATCC 29212)
[13] = Enterococcus faecalis Micromyx # 413, LZD^R from res. dev. or other
[14] = Enterococcus faecalis Micromyx # 486, Van A
[15] = Enterococcus faecalis Micromyx # 1088, Van B
[16] = Streptococcus pyogenes Micromyx # 942, macrolide^R
[17] = Streptococcus pyogenes Micromyx # 985, Susceptible, read-out: MIC
[18] = ATCC 29213 / MSSA, Staphylococcus aureus Micromyx # 100, MSSA, CLSI QC strain (ATCC 29213)
[19] = MRSA, Staphylococcus aureus Micromyx # 1004, MRSA, FA^R
[20] = MRSA, Staphylococcus aureus Micromyx # 1730, Community-acquired MRSA
[21] = MSSA, Staphylococcus aureus Micromyx # 1002, MSSA, macrolide^R
[22] = Staphylococcus aureus Micromyx # 106, RA^R
[23] = Staphylococcus aureus Micromyx # 1016, FA^R
[24] = Staphylococcus aureus Micromyx # 1651, LZD^R clinical isolate
[25] = Staphylococcus aureus Micromyx # 1727, GM^R
[26] = Staphylococcus aureus Micromyx # 1731, CHL^R
[27] = VISA, Staphylococcus aureus Micromyx # 1723, VISA
[28] = Enterococcus faecium Micromyx # 750, Van^S
[29] = Enterococcus faecium Micromyx # 752, Van A
[30] = Enterococcus faecium Micromyx # 1120, Van B
[31] = Enterococcus faecium Micromyx # 1721, DAP^R

Row | Compound | MIC (Streptococcus pneumoniae; [6]) | MIC (Streptococcus pneumoniae; [8]) | MIC (Streptococcus pneumoniae; [9]) | MIC [1, 10] | MIC [1, 11] | MIC (Enterococcus faecalis [2]; [12]) | MIC (Enterococcus faecalis [2]; [13]) | MIC (Enterococcus faecalis [2]; [14]) | MIC (Enterococcus faecalis [2]; [15]) | MIC, CLSI Recommended Range (Enterococcus faecalis [3]) | MIC, CLSI Recommended Range (Staphylococcus aureus [4]) | MIC (Streptococcus pyogenes; [16]) | MIC (Streptococcus pyogenes; [17]) | MIC (Staphylococcus aureus [5]; [18]) | MIC (Staphylococcus aureus [5]; [19]) | MIC (Staphylococcus aureus [5]; [20]) | MIC (Staphylococcus aureus [5]; [21]) | MIC (Staphylococcus aureus [5]; [23]) | MIC (Staphylococcus aureus [5]; [25]) | MIC (Staphylococcus aureus [5]; [26]) | also measured
1 | CCCCCCCCCC(=O)N[C@@H](Cc1c[nH]c2ccccc12)C(=O)N[C@H](CC(N)=O)C(=O)N[C@@H](CC(=O)O)C(=O)N[C@@H]1C(=O)NCC(=O)N[C@@H](CCCN)C(=O)N[C@@H](CC(=O)O)C(=O)N[C@H](C)C(=O)N[C@@H](CC(=O)O)C(=O)NCC(=O)N[C@H](CO)C(=O)N[C@@H]([C@H](C)CC(=O)O)C(=O)N[C@@H](CC(=O)c2ccccc2N)C(=O)O[C@@H]1C [Daptomycin] | ≤ 0.12 µg/mL | ≤ 0.12 µg/mL | ≤ 0.12 µg/mL | 0.5 µg/mL (≈ 0.309 µM) | 0.5 µg/mL (≈ 0.309 µM) | 1 µg/mL (≈ 0.617 µM) | 0.5 µg/mL (≈ 0.309 µM) | 0.5 µg/mL (≈ 0.309 µM) | 1 µg/mL (≈ 0.617 µM) | 1 to 4 µg/mL | 0.25 to 1 µg/mL | ≦0.12 μg/mL | ≤ 0.12 µg/mL | 0.5 µg/mL (≈ 0.309 µM) | 0.25 µg/mL (≈ 0.154 µM) | 0.5 µg/mL (≈ 0.309 µM) | 0.5 µg/mL (≈ 0.309 µM) | 0.25 µg/mL (≈ 0.154 µM) | 0.25 µg/mL (≈ 0.154 µM) | 0.25 µg/mL (≈ 0.154 µM) | MIC (Streptococcus pneumoniae; [7]): 0.25 µg/mL (≈ 0.154 µM); MIC (Staphylococcus aureus [5]; [22]): 0.5 µg/mL (≈ 0.309 µM); MIC (Staphylococcus aureus [5]; [24]): 0.5 µg/mL (≈ 0.309 µM); MIC (Staphylococcus aureus [5]; [27]): 1 µg/mL (≈ 0.617 µM); MIC (Enterococcus faecium; [28]): ≤ 0.12 µg/mL; MIC (Enterococcus faecium; [29]): 2 µg/mL (≈ 1.23 µM); MIC (Enterococcus faecium; [30]): 2 µg/mL (≈ 1.23 µM); MIC (Enterococcus faecium; [31]): 8 µg/mL (≈ 4.94 µM)
2 | Cc1onc(-c2ccccc2)c1C(=O)N[C@@H]1C(=O)N2[C@@H]1SC(C)(C)[C@@H]2C(=O)O [Oxacillin, oxacillin] | 16 µg/mL (≈ 39.9 µM) | 16 µg/mL (≈ 39.9 µM) | 16 µg/mL (≈ 39.9 µM) | 64 µg/mL (≈ 159 µM) | ≤ 0.12 µg/mL | 16 µg/mL (≈ 39.9 µM) | 64 µg/mL (≈ 159 µM) | 16 µg/mL (≈ 39.9 µM) | 16 µg/mL (≈ 39.9 µM) | 8 to 32 µg/mL | 0.12 to 0.5 µg/mL | ≦0.12 μg/mL | ≤ 0.12 µg/mL | 0.25 µg/mL (≈ 0.623 µM) | 16 µg/mL (≈ 39.9 µM) | 32 µg/mL (≈ 79.7 µM) | 0.5 µg/mL (≈ 1.25 µM) | 32 µg/mL (≈ 79.7 µM) | 0.25 µg/mL (≈ 0.623 µM) | 0.25 µg/mL (≈ 0.623 µM) | MIC (Streptococcus pneumoniae; Streptococcus pneumoniae Micromyx # 375, parC, gyrB): ≤ 0.12 µg/mL; MIC (Streptococcus pneumoniae; Streptococcus pneumoniae Micromyx # 376, parC, gyrA): ≤ 0.12 µg/mL; MIC (Streptococcus pneumoniae; [7]): ≤ 0.12 µg/mL; MIC (Enterococcus faecium; [28]): 4 µg/mL (≈ 9.96 µM); MIC (Enterococcus faecium; [31]): 32 µg/mL (≈ 79.7 µM)
3 | CC(=O)NC[C@H]1CN(c2ccc(N3CCOCC3)c(F)c2)C(=O)O1 [Linezolid, linezolid] | 4 µg/mL (≈ 11.9 µM) | 2 µg/mL (≈ 5.93 µM) | 2 µg/mL (≈ 5.93 µM) | 4 µg/mL (≈ 11.9 µM) | 4 µg/mL (≈ 11.9 µM) | 8 µg/mL (≈ 23.7 µM) | 64 µg/mL (≈ 190 µM) | 4 µg/mL (≈ 11.9 µM) | 4 µg/mL (≈ 11.9 µM) | 1 to 4 µg/mL | 1 to 4 µg/mL | 4 µg/mL (≈ 11.9 µM) | 4 µg/mL (≈ 11.9 µM) | 8 µg/mL (≈ 23.7 µM) | 4 µg/mL (≈ 11.9 µM) | 8 µg/mL (≈ 23.7 µM) | 4 µg/mL (≈ 11.9 µM) | 8 µg/mL (≈ 23.7 µM) | 4 µg/mL (≈ 11.9 µM) | 8 µg/mL (≈ 23.7 µM) | MIC (Staphylococcus aureus [5]; [22]): 4 µg/mL (≈ 11.9 µM); MIC (Staphylococcus aureus [5]; [24]): 64 µg/mL (≈ 190 µM); MIC (Staphylococcus aureus [5]; [27]): 4 µg/mL (≈ 11.9 µM); MIC (Enterococcus faecium; [28]): 4 µg/mL (≈ 11.9 µM); MIC (Enterococcus faecium; [29]): 4 µg/mL (≈ 11.9 µM); MIC (Enterococcus faecium; [30]): 4 µg/mL (≈ 11.9 µM); MIC (Enterococcus faecium; [31]): 2 µg/mL (≈ 5.93 µM)
